The results in this text go back to patent publication US8106218B2, “Pharmaceutical compounds” (Neuroscienze Pharmaness S.C. A R.L., priority 2004, dated 2012).

Entries after “also recorded” stand apart in the source; their conditions may differ. Where two headings read alike, the source gives them in different places.

By Ki is commonly meant the dissociation constant of the complex between target and ligand, obtained from inhibition or displacement. Broadly, the melting point is the temperature, or range, at which the solid turns liquid.

Series [1] concerns rat. Conditions: for passage of the hemato-encephalic barrier: concluded from the hypothermia tests. The protocol: The rectal temperature in the rat was determined by an electronic thermometer inserted at a 2 mm depth. The measurements were carried out on rats acclimated for one hour. […]
Each test was repeated on ten animals; the reported results are the average of the results obtained with the ten animals.

The subject of series [2] is rat. Put plainly: Hypothermia test in vivo, antagonism of the hypothermia induced by WIN 55,212-2.
Description: The rectal temperature in the rat was determined by an electronic thermometer inserted at a 2 mm depth. The measurements were carried out on rats acclimated for one hour. The rectal temperature was determined before and after (from 30 to 120 minutes) the i.p. administration of the compound to be tested.
Series [3] relates to rat intestinal motility. Description: Intestinal motility, Upper Gut Transit Test, antagonism of the constipating action of WIN 55,212-2. The series is classed as in vivo. Conditions: WIN alone 25%. The method, then:
(§1) To evaluate the activity in vivo of the compounds (I) object of the present invention, functional tests were carried out directed to the evaluation of the effect of said compounds on the rat intestinal motility. It was indeed shown the involvement of the cannabinoidergic CB1 receptors in the intestinal motility regulation in rat (R. G. Pertwee et al; Br. J. Pharmacol.; 1996, 118, 2199-2205). In particular, the CB1 receptor agonists slacken the gastrointestinal motility; antagonist compounds of the same receptors have instead a prokinetic effect on the gastrointestinal transit (G. Colombo et al.; Eur. J. Pharmacol.; 1998, 344, 67-69; M. A. Casu et al.; Eur. J. Pharmacol.; 2003, 459, 97-105).
(§2) The evaluation of the constipating or prokinetic effect of the compounds was carried out by the Upper Gut Transit Test method on the basis of the procedure defined and ratified by Y. Nagakura et al.; Eur. J. Pharmacol.; 1996, 311, 67-72. The method, which allows to measure the motility of the stomach and of the first intestine tract (small or little intestine), requires: • the administration of the compound to be tested by i.p. route; • the administration of carmine red (marker not directly absorbable from the stomach) by intragastric route through a metal probe, after 20 minutes from the administration of the compound to be tested; • the rat sacrifice by cervical dislocation after a pre-fixed time (30 minutes) starting from the administration time; • the intestine explant from pylorus to the ileo-cecal valve; • the determination of the intestinal part crossed by the marker; • the data processing to determine the percentage of crossed part with respect to the total length of the small intestine.
With respect to the control (physiological solution or carrier wherein the compounds to be tested were solubilized or dispersed), the administration of CB1 agonist compounds implies an intestinal transit percentage reduction; an opposite effect is noticed in case of antagonist compounds. The latter are therefore capable to cancel the constipating effect of CB1 agonist compounds. […]

Series [4] deals with rat intestinal motility. Description: Intestinal motility, Upper Gut Transit Test, compound alone. The class given is in vivo. The following applies: control 50%. The protocol: as §1, §2
With respect to the control (physiological solution or carrier wherein the compounds to be tested were solubilized or dispersed), the administration of CB1 agonist compounds implies an intestinal transit percentage reduction; an opposite effect is noticed in case of antagonist compounds. The latter are therefore capable to cancel the constipating effect of CB1 agonist compounds.
Each test was repeated on ten animals; the results reported in the Examples are the average of the results obtained with ten animals.

For series [5], the target named is T1, cannabinoidergic CB2 receptors (Rattus norvegicus, UniProt Q9QZN9).
T1 construct: the brain in toto (cerebellum excluded) and the spleen were rapidly dissected and maintained in ice; from tissue; host or cells: rat spleen, membrane preparation
T1 sequence (Q9QZN9 1-360): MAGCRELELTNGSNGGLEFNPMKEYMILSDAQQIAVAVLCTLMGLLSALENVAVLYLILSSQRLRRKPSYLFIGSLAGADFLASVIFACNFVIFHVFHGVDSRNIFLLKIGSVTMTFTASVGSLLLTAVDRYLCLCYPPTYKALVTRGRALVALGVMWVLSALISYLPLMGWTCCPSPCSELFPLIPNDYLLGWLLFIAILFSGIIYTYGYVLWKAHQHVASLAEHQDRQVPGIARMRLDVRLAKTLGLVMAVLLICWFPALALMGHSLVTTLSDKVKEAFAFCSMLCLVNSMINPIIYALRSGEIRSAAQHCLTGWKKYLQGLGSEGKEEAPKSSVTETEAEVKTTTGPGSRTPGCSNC
Description: Radioreceptorial binding, [3H]-CP-55,940 competition, rat spleen membranes. The method, then: (§3) The affinity of the synthesized compounds towards the cannabinoidergic CB1 and CB2 receptors was evaluated in vitro through radioreceptorial binding studies by utilizing the following method.
(§4) The receptorial binding technique allows indeed to establish if and with what affinity and specificity a determined compound binds itself to a particular receptor. To evaluate the possible affinity of a determined compound towards a particular receptor it is necessary to make to compete (in a particular preparation of the tissue in which those determined receptors are present) the compound to be tested with another compound whose affinity is known and whose molecule was rendered radioactive. […] The reading of the radioactivity present in the receptor-compound complex allows furthermore to calculate with extreme precision the amount of compound bound to the receptor. […] By repeating the same experimental scheme it is possible to evaluate the affinity of the compound towards other kinds of receptors and establish then the specificity degree.
(§5) Food and water were available ad libitum.
(§6) The animals were sacrificed by cervical dislocation, the brain in toto (cerebellum excluded) and the spleen were rapidly dissected and maintained in ice.
(§7) The tissue was homogenized in 15 volumes (weight/volume) of TME buffer (50 mM Tris, 1 mM EDTA e 3 mM MgCl2, pH 7.4) by an Ultra-Turrax and centrifuged for 10 minutes at 1086×g in a centrifuge cooled at 4° C. The resulting supernatant was centrifuged at 45,000×g for 30 min at 4° C. by using a Beckman SW41 rotor and the final pellet was resuspended in 50 volumes of TME.
(§8) The obtained membranes (50-80 μg of proteins) were incubated in the presence of 1 nM di[^3H]-CP55,940 for 1 h at 30° C. in a final volume of 0.5 ml of TME buffer containing 5 mg/ml of bovine serum albumin (BSA). The non specific binding was measured in the presence of CP55,940 at the 1 μM concentration.
(§9) All the experiments were carried out in polypropylene test tubes pretreated with Sigma-Cote (Sigma Chemical Co. Ltd., Poole, UK) to reduce the non specific binding.
(§10) For the building of the competitive inhibition binding curves eight different concentrations of each compound were used.
(§11) Incubation was interrupted by addition of TME buffer (at 4° C.) containing 5 mg/ml of BSA and filtration under vacuum through Whatman GFC filters pretreated with 0.5% of polyethylamine (PEI) and by using a filtering apparatus (Brandell, Gaithersburg, Md., USA). Filters were washed 3 times with 5 ml of Tris HCl buffer (pH 7.4, 4° C.) containing 1 mg/ml of BSA and singly placed in plastic vials containing 4 ml of scintillating liquid (Ultima Gold MV, Packard).
(§12) The radioactivity present in the filters was measured by a scintillator spectrophotometer (Tricarb 2100, Packard, Meridien, USA).
(§13) The protein determination was carried out by the Bradford method by using the protocol and the reactants supplied by Bio-Rad (Milano, Italia).
(§14) The affinity of the compounds towards the CB1 and CB2 receptors was expressed in Ki terms.

Series [6] deals with T2, cannabinoidergic CB1 receptors (Rattus norvegicus, UniProt P20272).
T2 construct: the brain in toto (cerebellum excluded) and the spleen were rapidly dissected and maintained in ice; from tissue; host or cells: rat brain (cerebellum excluded), membrane preparation
Put plainly: Radioreceptorial binding, [3H]-CP-55,940 competition, rat brain membranes. The method, then:
as §3, §4, §5, §6, §7, §8, §9, §10, §11, §12, §13, §14

T2 sequence (P20272 whole entry): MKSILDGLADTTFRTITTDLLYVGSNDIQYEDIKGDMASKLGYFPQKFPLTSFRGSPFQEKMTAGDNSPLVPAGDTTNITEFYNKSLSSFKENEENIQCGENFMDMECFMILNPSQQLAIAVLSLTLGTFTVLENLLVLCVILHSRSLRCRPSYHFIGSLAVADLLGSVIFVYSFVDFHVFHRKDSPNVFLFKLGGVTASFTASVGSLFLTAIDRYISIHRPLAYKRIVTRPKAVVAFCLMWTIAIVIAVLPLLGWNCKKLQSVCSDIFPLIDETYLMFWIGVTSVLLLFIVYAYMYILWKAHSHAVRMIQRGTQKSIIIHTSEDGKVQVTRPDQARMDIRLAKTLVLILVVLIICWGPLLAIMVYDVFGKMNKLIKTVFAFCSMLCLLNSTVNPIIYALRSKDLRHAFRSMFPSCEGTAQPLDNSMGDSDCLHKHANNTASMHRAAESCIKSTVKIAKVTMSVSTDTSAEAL

Consider “N-piperidino-5-(4-chlorophenyl)-1-(2,4-dichlorophenyl)-4-methylpyrazol-3-carboxyamide [SR141716A, reference compound]”, for which, in the series on rat [1], the “passage of the hemato-encephalic barrier” value is given as “capable to pass the hemato-encephalic barrier”. The “effect on body temperature (hypothermia) of the compound alone, in words” value with rat [1] (i.p., compound alone, up to 120 min) is recorded as “has not implied any variation of the body temperature”. In addition, the Body temperature came to 35.3 °C in the series with rat [2] (WIN 55,212-2 (3 mg/kg) + compound (0.1 mg/kg), 30 min); 36.9 °C with rat [2] (WIN 55,212-2 (3 mg/kg) + compound (0.1 mg/kg), 60 min); 37.5 °C with rat [2] (WIN 55,212-2 (3 mg/kg) + compound (0.1 mg/kg), 90 min); 37.0 °C in the series on rat [2] (WIN 55,212-2 (3 mg/kg) + compound (0.5 mg/kg), 30 min); 37.8 °C in the series with rat [2] (WIN 55,212-2 (3 mg/kg) + compound (0.5 mg/kg), 60 min); 37.9 °C in the series on rat [2] (WIN 55,212-2 (3 mg/kg) + compound (0.5 mg/kg), 90 min). For the same compound, the “antagonist activity towards the hypothermia induced by WIN 55,212-2, in words” value in the series on rat [2] (compound i.p. 30 min before WIN 55,212-2 (3 mg/kg)) was “able to antagonize the effect of WIN 55,212-2”. Further, the “intestinal portion run by the marker with respect to the total intestine length” value (shortened to “intestinal portion run by the marker”) is 50% in the series on rat intestinal motility [3] (compound 0.1 mg/kg before WIN 55,212-2 0.5 mg/kg) and 75% in the series with rat intestinal motility [4] (compound 2.5 mg/kg i.p.).

`O=C(NN1CCCC1)c1nn(-c2ccc(Cl)cc2Cl)c2c1CCc1sc(Cl)cc1-2` [Example 3.5, N-pyrrolidinyl-7-chloro-1-(2′,4′-dichlorophenyl)-4,5-dihydro-1H-thieno[2,3-g]indazol-3-carboxamide]: the melting point is 228 °C. Also, the Ki in series [5] (rat spleen membranes, 1 nM [3H]-CP55,940, read-out: CB2 (spleen) Ki) came out at 243 ± 14 nM. For the same compound, the “passage of the hemato-encephalic barrier” value in the series with rat [1] is “not able to pass the hemato-encephalic barrier”. In addition, the Ki in series [6] (rat brain membranes, 1 nM [3H]-CP55,940, read-out: CB1 (brain) Ki) stood at 137 ± 12 nM. Further, the “intestinal portion run by the marker” value with rat intestinal motility [3] (compound 1.5 mg/kg before WIN 55,212-2 0.5 mg/kg) stood at 50%. Besides, the “intestinal portion run by the marker” value in the series on rat intestinal motility [4] (compound 5 mg/kg i.p.) stood at 67%.

`O=C(NN1CCCCCC1)c1nn(-c2ccc(Cl)cc2Cl)c2c1CCc1sc(Cl)cc1-2` [Example 3.6, N-homopiperidinyl-7-chloro-1-(2′,4′-dichlorophenyl)-4,5-dihydro-1H-thieno[2,3-g]indazol-3-carboxamide] displayed a melting point of 181 to 182 °C. In series [5], this compound came in with a Ki of 20.8 ± 1.4 nM. Further, the “passage of the hemato-encephalic barrier” value with rat [1] is given as “unable to pass the hemato-encephalic barrier; also recorded: not capable to pass the hemato-encephalic barrier”. The Ki in series [6] is 9.83 ± 0.72 nM. In addition, the “intestinal portion run by the marker” value in the series on rat intestinal motility [3] (compound 0.3 mg/kg before WIN 55,212-2 0.5 mg/kg) amounted to 50%. Moreover, the “intestinal portion run by the marker” value in the series with rat intestinal motility [4] (compound 1 mg/kg i.p.) is reported as 65%. Besides, the “intestinal portion run by the marker” value with rat intestinal motility [4] (compound 5 mg/kg i.p.) is reported as 75%.
